Where a SMILES comes first, the peptide text is derived from it. Bridges are numbered along the chain shown (N, C = ends). [ ]: non-standard residue; d: D form. The star is where a group is joined. Phe(4-COOH) = N[C@@H](Cc1ccc(C(=O)O)cc1)C(=O)O; Bip = N[C@@H](Cc1ccc(-c2ccccc2)cc1)C(=O)O; hArg = N=C(N)NCCCC[C@H](N)C(=O)O; 4Pal = N[C@@H](Cc1ccncc1)C(=O)O; Cha = N[C@@H](CC1CCCCC1)C(=O)O; 12Ado = NCCCCCCCCCCCC(=O)O; Carboxymethyl = O=C(O)C*; NMeA = CN[C@@H](C)C(=O)O; Orn = NCCC[C@H](N)C(=O)O; Aun = NCCCCCCCCCCC(=O)O; Dab = NCC[C@H](N)C(=O)O; Dap = NC[C@H](N)C(=O)O; AEEA = NCCOCCOCC(=O)O

The record followed here is US20260070945A1, “MACROCYCLIC IMMUNOMODULATORS” (Bristol-Myers Squibb Company, priority 2022, published 2026).

T1 sequence (Q15116 25-288): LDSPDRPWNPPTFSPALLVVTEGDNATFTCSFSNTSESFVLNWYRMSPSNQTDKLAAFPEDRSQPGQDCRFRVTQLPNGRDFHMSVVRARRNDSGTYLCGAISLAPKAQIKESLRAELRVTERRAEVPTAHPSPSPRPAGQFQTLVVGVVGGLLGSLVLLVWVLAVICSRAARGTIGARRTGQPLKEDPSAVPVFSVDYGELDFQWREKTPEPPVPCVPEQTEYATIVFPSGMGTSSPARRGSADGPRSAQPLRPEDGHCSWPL

The assay addresses T1, PD-1/PD-L1 interaction (PE-labeled human PD-L1-Ig binding to Jurkat cell line over-expressing human PD-1) (Homo sapiens, UniProt Q15116).
T1 construct: expressed in transfected cells; host or cells: Jurkat
The experiment in a line: Jurkat-PD-1 Cell Binding High-Content Screening Assay (CBA). The note with it: Jurkat-hPD-1 cells, PE-labeled PD-L1-Ig 20 nM final; read-out: Jurkat HPD1 PDL1 IC50. In a few lines:
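Read-out: high-content imaging of cell-bound PE fluorescence, with Hoechst 33342 nuclear counterstain after paraformaldehyde fixation. Before labeled ligand (20 nM final, 1 h) was added, compound sat on the cells for 2 h at 37 °C in DMEM/10% FCS.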
For the molecule `CC(C)C[C@@H]1NC(=O)[C@H](Cc2c[nH]c3ccccc23)NC(=O)[C@H](CC(=O)O)NC(=O)[C@H](Cc2ccc(C(=O)O)cc2)NC(=O)[C@H](Cc2ccc(OCC(=O)O)cc2)NC(=O)CSC[C@@H](C(=O)N[C@@H](CCCN)C(=O)NCCOCCOCC(=O)NCCCCCCCCCCC(=O)O)NC(=O)[C@H](CCCCN)NC(=O)[C@H](C(C)C)NC(=O)[C@H](CC2CCCCC2)NC(=O)[C@H](CC(=O)O)NC(=O)[C@@H](CC(C)C)NC(=O)[C@H](C)N(C)C(=O)[C@H](C(C)C)NC(=O)[C@H](Cc2ccc(-c3ccccc3)cc2)NC1=O` [Example 2136] ({CH2CO}-Y(Carboxymethyl)[Phe(4-COOH)]DWL[Bip]V[NMeA][dL]D[Cha]VKC[Orn][AEEA][Aun]-OH; thioether N-14), the IC50 (as a rule, the concentration that inhibits the measured activity by half) came to 143 nM.

Regarding `CC(C)C[C@@H]1NC(=O)[C@H](Cc2c[nH]c3ccccc23)NC(=O)[C@H](CC(=O)O)NC(=O)[C@H](Cc2ccc(C(=O)O)cc2)NC(=O)[C@H](Cc2ccc(OCC(=O)O)cc2)NC(=O)CSC[C@@H](C(=O)N[C@@H](CCCN)C(=O)NCCOCCOCC(=O)NCCCCCCCCCCC(=O)O)NC(=O)[C@H](CCCCN)NC(=O)[C@H](C(C)C)NC(=O)[C@H](CC2CCCCC2)NC(=O)[C@H](CCC(=O)O)NC(=O)[C@@H](CC(C)C)NC(=O)[C@H](C)N(C)C(=O)[C@H](C(C)C)NC(=O)[C@H](Cc2ccc(-c3ccccc3)cc2)NC1=O` [Example 2137] ({CH2CO}-Y(Carboxymethyl)[Phe(4-COOH)]DWL[Bip]V[NMeA][dL]E[Cha]VKC[Orn][AEEA][Aun]-OH; thioether N-14), the IC50 is 30.4 nM.

In the case of `CC(C)C[C@@H]1NC(=O)[C@H](Cc2c[nH]c3ccccc23)NC(=O)[C@H](CC(=O)O)NC(=O)[C@H](Cc2ccc(C(=O)O)cc2)NC(=O)[C@H](Cc2ccc(OCC(=O)O)cc2)NC(=O)CSC[C@@H](C(=O)N[C@@H](CCCN)C(=O)NCCOCCOCC(=O)NCCCCCCCCCCC(=O)O)NC(=O)[C@H](CO)NC(=O)[C@H](C(C)C)NC(=O)[C@H](CC2CCCCC2)NC(=O)[C@H](CCCN)NC(=O)[C@@H](CC(C)C)NC(=O)[C@H](C)N(C)C(=O)[C@H](C(C)C)NC(=O)[C@H](Cc2ccc(-c3ccccc3)cc2)NC1=O` [Example 2138] ({CH2CO}-Y(Carboxymethyl)[Phe(4-COOH)]DWL[Bip]V[NMeA][dL][Orn][Cha]VSC[Orn][AEEA][Aun]-OH; thioether N-14), the half-maximal inhibitory concentration (IC50) stood at 14.2 nM.

As to `CC(C)C[C@@H]1NC(=O)[C@H](Cc2c[nH]c3ccccc23)NC(=O)[C@H](CC(=O)O)NC(=O)[C@H](Cc2ccc(OCC(=O)O)cc2)NC(=O)[C@H](CCCNC(=N)N)NC(=O)CSC[C@@H](C(=O)N[C@@H](CCCN)C(=O)NCCOCCOCC(=O)NCCCCCCCCCCC(=O)O)NC(=O)[C@H](CO)NC(=O)[C@H](C(C)C)NC(=O)[C@H](CC2CCCCC2)NC(=O)[C@H](CCN)NC(=O)[C@@H](CC(C)C)NC(=O)[C@H](C)N(C)C(=O)[C@H](C(C)C)NC(=O)[C@H](Cc2ccc(-c3ccccc3)cc2)NC1=O` [Example 2139] ({CH2CO}-RY(Carboxymethyl)DWL[Bip]V[NMeA][dL][Dab][Cha]VSC[Orn][AEEA][Aun]-OH; thioether N-14), the IC50 was determined as 10.9 nM.

Take `CC(C)C[C@@H]1NC(=O)[C@H](Cc2c[nH]c3ccccc23)NC(=O)[C@H](CC(=O)O)NC(=O)[C@H](CCCCNC(=N)N)NC(=O)[C@H](Cc2ccc(OCC(=O)O)cc2)NC(=O)CSC[C@@H](C(=O)N[C@@H](CCCN)C(=O)NCCOCCOCC(=O)NCCCCCCCCCCC(=O)O)NC(=O)[C@H](CO)NC(=O)[C@H](C(C)C)NC(=O)[C@H](CC2CCCCC2)NC(=O)[C@H](CCN)NC(=O)[C@@H](CC(C)C)NC(=O)[C@H](C)N(C)C(=O)[C@H](C(C)C)NC(=O)[C@H](Cc2ccc(-c3ccccc3)cc2)NC1=O` [Example 2140] ({CH2CO}-Y(Carboxymethyl)[hArg]DWL[Bip]V[NMeA][dL][Dab][Cha]VSC[Orn][AEEA][Aun]-OH; thioether N-14): the IC50 turned out to be 15.7 nM.

Turning to `CC(C)C[C@@H]1NC(=O)[C@H](Cc2c[nH]c3ccccc23)NC(=O)[C@H](CC(=O)O)NC(=O)[C@H](Cc2ccncc2)NC(=O)[C@H](Cc2ccc(OCC(=O)O)cc2)NC(=O)CSC[C@@H](C(=O)N[C@@H](CCCN)C(=O)NCCOCCOCC(=O)NCCCCCCCCCCCC(=O)O)NC(=O)[C@H](CO)NC(=O)[C@H](C(C)C)NC(=O)[C@H](CC2CCCCC2)NC(=O)[C@H](CCN)NC(=O)[C@@H](CC(C)C)NC(=O)[C@H](C)N(C)C(=O)[C@H](C(C)C)NC(=O)[C@H](Cc2ccc(-c3ccccc3)cc2)NC1=O` [Example 2141] ({CH2CO}-Y(Carboxymethyl)[4Pal]DWL[Bip]V[NMeA][dL][Dab][Cha]VSC[Orn][AEEA][12Ado]-OH; thioether N-14), the IC50 came to 13.2 nM.

In the case of `CC(C)C[C@@H]1NC(=O)[C@H](Cc2c[nH]c3ccccc23)NC(=O)[C@H](CC(=O)O)NC(=O)[C@H](Cc2ccc(OCC(=O)O)cc2)NC(=O)[C@H](Cc2ccncc2)NC(=O)CSC[C@@H](C(=O)N[C@@H](CCCN)C(=O)NCCOCCOCC(=O)NCCCCCCCCCCC(=O)O)NC(=O)[C@H](CO)NC(=O)[C@H](C(C)C)NC(=O)[C@H](CC2CCCCC2)NC(=O)[C@H](CCN)NC(=O)[C@@H](CC(C)C)NC(=O)[C@H](C)N(C)C(=O)[C@H](C(C)C)NC(=O)[C@H](Cc2ccc(-c3ccccc3)cc2)NC1=O` [Example 2142] ({CH2CO}-[4Pal]Y(Carboxymethyl)DWL[Bip]V[NMeA][dL][Dab][Cha]VSC[Orn][AEEA][Aun]-OH; thioether N-14), the IC50 was determined as 11.6 nM.

In the case of `CC(C)C[C@@H]1NC(=O)[C@H](Cc2c[nH]c3ccccc23)NC(=O)[C@H](CC(=O)O)NC(=O)[C@H](Cc2ccc(C(=O)O)cc2)NC(=O)[C@H](Cc2ccc(OCC(=O)O)cc2)NC(=O)CSC[C@@H](C(=O)N[C@@H](CCCN)C(=O)NCCOCCOCC(=O)NCCCCCCCCCCC(=O)O)NC(=O)[C@H](CN)NC(=O)[C@H](C(C)C)NC(=O)[C@H](CC2CCCCC2)NC(=O)[C@H](CC(N)=O)NC(=O)[C@@H](CC(C)C)NC(=O)[C@H](C)N(C)C(=O)[C@H](C(C)C)NC(=O)[C@H](Cc2ccc(-c3ccccc3)cc2)NC1=O` [Example 2143] ({CH2CO}-Y(Carboxymethyl)[Phe(4-COOH)]DWL[Bip]V[NMeA][dL]N[Cha]V[Dap]C[Orn][AEEA][Aun]-OH; thioether N-14), the IC50 came to 61.3 nM.

As for `CC(C)C[C@@H]1NC(=O)[C@H](Cc2c[nH]c3ccccc23)NC(=O)[C@H](CC(=O)O)NC(=O)[C@H](Cc2ccc(C(=O)O)cc2)NC(=O)[C@H](Cc2ccc(OCC(=O)O)cc2)NC(=O)CSC[C@@H](C(=O)N[C@@H](CCCN)C(=O)NCCOCCOCC(=O)NCCCCCCCCCCC(=O)O)NC(=O)[C@H](CCCN)NC(=O)[C@H](C(C)C)NC(=O)[C@H](CC2CCCCC2)NC(=O)[C@H](CC(N)=O)NC(=O)[C@@H](CC(C)C)NC(=O)[C@H](C)N(C)C(=O)[C@H](C(C)C)NC(=O)[C@H](Cc2ccc(-c3ccccc3)cc2)NC1=O` [Example 2144] ({CH2CO}-Y(Carboxymethyl)[Phe(4-COOH)]DWL[Bip]V[NMeA][dL]N[Cha]V[Orn]C[Orn][AEEA][Aun]-OH; thioether N-14), the IC50 is 19.3 nM.

In the case of `CC(C)C[C@@H]1NC(=O)[C@H](Cc2c[nH]c3ccccc23)NC(=O)[C@H](CC(=O)O)NC(=O)[C@H](Cc2ccc(C(=O)O)cc2)NC(=O)[C@H](Cc2ccc(OCC(=O)O)cc2)NC(=O)CSC[C@@H](C(=O)N[C@@H](CCCN)C(=O)NCCOCCOCC(=O)NCCCCCCCCCCC(=O)O)NC(=O)[C@H](CCCCN)NC(=O)[C@H](C(C)C)NC(=O)[C@H](CC2CCCCC2)NC(=O)[C@H](CC(N)=O)NC(=O)[C@@H](CC(C)C)NC(=O)[C@H](C)N(C)C(=O)[C@H](C(C)C)NC(=O)[C@H](Cc2ccc(-c3ccccc3)cc2)NC1=O` [Example 2145] ({CH2CO}-Y(Carboxymethyl)[Phe(4-COOH)]DWL[Bip]V[NMeA][dL]N[Cha]VKC[Orn][AEEA][Aun]-OH; thioether N-14), the IC50 is 14.3 nM.

As for `CC(C)C[C@@H]1NC(=O)[C@H](Cc2c[nH]c3ccccc23)NC(=O)[C@H](CC(=O)O)NC(=O)[C@H](Cc2c[nH]cn2)NC(=O)[C@H](Cc2ccc(OCC(=O)O)cc2)NC(=O)CSC[C@@H](C(=O)N[C@@H](CCCN)C(=O)NCCOCCOCC(=O)NCCCCCCCCCCC(=O)O)NC(=O)[C@H](CO)NC(=O)[C@H](C(C)C)NC(=O)[C@H](CC2CCCCC2)NC(=O)[C@H](CCN)NC(=O)[C@@H](CC(C)C)NC(=O)[C@H](C)N(C)C(=O)[C@H](C(C)C)NC(=O)[C@H](Cc2ccc(-c3ccccc3)cc2)NC1=O` [Example 2146] ({CH2CO}-Y(Carboxymethyl)HDWL[Bip]V[NMeA][dL][Dab][Cha]VSC[Orn][AEEA][Aun]-OH; thioether N-14), the IC50 was determined as 12.7 nM.

For the molecule `CC(C)C[C@@H]1NC(=O)[C@H](Cc2c[nH]c3ccccc23)NC(=O)[C@H](CC(=O)O)NC(=O)[C@H](Cc2ccc(O)cc2)NC(=O)[C@H](Cc2ccncc2)NC(=O)CSC[C@@H](C(=O)N[C@@H](CCCN)C(=O)NCCOCCOCC(=O)NCCCCCCCCCCC(=O)O)NC(=O)[C@H](CO)NC(=O)[C@H](C(C)C)NC(=O)[C@H](CC2CCCCC2)NC(=O)[C@H](CCN)NC(=O)[C@@H](CC(C)C)NC(=O)[C@H](C)N(C)C(=O)[C@H](C(C)C)NC(=O)[C@H](Cc2ccc(-c3ccccc3)cc2)NC1=O` [Example 2147] ({CH2CO}-[4Pal]YDWL[Bip]V[NMeA][dL][Dab][Cha]VSC[Orn][AEEA][Aun]-OH; thioether N-14), the IC50 turned out to be 10.4 nM.

`CC(C)C[C@@H]1NC(=O)[C@H](Cc2c[nH]c3ccccc23)NC(=O)[C@H](CC(=O)O)NC(=O)[C@H](Cc2ccc(O)cc2)NC(=O)[C@H](Cc2ccccc2)NC(=O)CSC[C@@H](C(=O)N[C@@H](CCCN)C(=O)NCCOCCOCC(=O)NCCCCCCCCCCC(=O)O)NC(=O)[C@H](CO)NC(=O)[C@H](C(C)C)NC(=O)[C@H](CC2CCCCC2)NC(=O)[C@H](CCN)NC(=O)[C@@H](CC(C)C)NC(=O)[C@H](C)N(C)C(=O)[C@H](C(C)C)NC(=O)[C@H](Cc2ccc(-c3ccccc3)cc2)NC1=O` [Example 2148] ({CH2CO}-FYDWL[Bip]V[NMeA][dL][Dab][Cha]VSC[Orn][AEEA][Aun]-OH; thioether N-14): the IC50 turned out to be 54.1 nM.
